Data set [1] deals with T1, Human acid ceramidase (hACR) (Homo sapiens, UniProt Q13510).
T1 construct: expressed in transfected cells; lysates of cells overexpressing acid ceramidase
T1 sequence (Q13510 22-395): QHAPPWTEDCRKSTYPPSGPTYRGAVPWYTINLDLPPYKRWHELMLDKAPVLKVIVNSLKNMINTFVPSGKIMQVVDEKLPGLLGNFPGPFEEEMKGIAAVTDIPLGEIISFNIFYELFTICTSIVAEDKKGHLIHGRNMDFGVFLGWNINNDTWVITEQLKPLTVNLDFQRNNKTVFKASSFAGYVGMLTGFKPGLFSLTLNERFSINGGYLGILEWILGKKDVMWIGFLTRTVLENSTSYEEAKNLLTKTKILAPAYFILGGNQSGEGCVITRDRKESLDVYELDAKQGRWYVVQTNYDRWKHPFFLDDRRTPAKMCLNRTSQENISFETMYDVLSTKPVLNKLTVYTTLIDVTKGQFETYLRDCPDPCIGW
Put plainly: Acid ceramidase biochemical fluorescent assay (cell lysates overexpressing acid ceramidase, substrate Rbm14-12). Conditions: 10 μg lysate protein, 1 hr preincubation at RT, pH 4.5, Rbm14-12 6.3 μM. The protocol:
The ability of exemplary compounds to inhibit acid ceramidase was measured.
Cell lysates overexpressing acid ceramidase were used as the enzyme source for compound potency determination in a biochemical fluorescent assay. Briefly, compounds were preincubated with 10 μg protein of cell lysates in a dose-response manner for 1 hr at RT in the assay buffer containing 25 mM NaAC and 100 mM NaCl, pH 4.5. The reaction was initiated by the addition of substrate Rbm14-12 at a final concentration of 6.3 μM. The reaction was run at RT for 1 hr before it was stopped by the addition of the stopping buffer containing 20% methanol (v/v), 1 mg/ml NaIO4, 0.1 M glycine, pH 10.6. The samples were incubated with the stopping buffer at RT for 1 hr to allow the fluorescent product to be formed. Finally the plate was read with SpectraMax i3 plate reader (Molecular Devices) at ex360 nm and em446 nm. Data were collected and used to determine the IC50 values of compounds by curve fitting to the four-parameter inhibition equation.
The symbol “A” indicates inhibition of less than 0.2 μM; the symbol “B” indicates inhibition in the range of 0.2 μM up to 1 μM; and the symbol “C” indicates inhibition of greater than 1 μM.

Data set [2] can be described thus: Compound solubility in water. To be noted: read-out: Solubility in H2O. Format: physicochemical.

SMILES strings stand for the structures. Values after ≈ are worked out from the molar mass of the structure shown.

As a reminder, the IC50 is the concentration at which inhibition is half-maximal. High values mean lower potency, low ones higher potency. As a reminder, the solubility is the concentration that dissolves in the medium under given conditions.

With `CC(C)CNC(=O)N1CCC(c2ccc3c(c2)oc(=O)n3C)CC1` [Example 3, N-iso-Butyl 4-(3-methyl-2-oxo-1,3-benzoxazol-6-yl)piperidine-1-carboxamide], the IC50 in data set [1] was over 1000 nM. Further, the solubility in data set [2] turned out to be 126 µM (≈ 41.8 µg/mL).

As for `CC(C)CNC(=O)N1CCC(c2cccc3c2oc(=O)n3C)CC1` [Example 8, N-iso-Butyl-4-(3-methyl-2-oxo-1,3-benzoxazol-7-yl)piperidine-1-carboxamide], the half-inhibitory concentration (IC50) in data set [1] is over 1000 nM. Further, in data set [2], the solubility came out at 143 µM (≈ 47.4 µg/mL).

With `Cn1c(=O)oc2cc(C3COCC(C)(C)N3C(=O)NCCCCc3ccccc3)ccc21` (centres unmarked) [Example 42, 3,3-Dimethyl-5-(3-methyl-2-oxo-1,3-benzoxazol-6-yl)-N-(4-phenylbutyl) morpholine-4-carboxamide], the IC50 in data set [1] is under 200 nM. For the same compound, in data set [2], the solubility was determined as 14.8 µM (≈ 6.48 µg/mL).

`CN1CCC(n2c(=O)oc3cc(C4CCN(C(=O)NCCCCc5ccccc5)CC4)ccc32)CC1` [Example 6, 4-[3-(1-Methyl-4-piperidyl)-2-oxo-1,3-benzoxazol-6-yl]-N-(4-phenylbutyl)piperidine-1-carboxamide]: the half-inhibitory concentration (IC50) in data set [1] was over 1000 nM. Further, in data set [2], the solubility is 10 µM (≈ 4.91 µg/mL).

For the compound `Cn1c(=O)oc2cc(C3CCN(C(=O)NCCCCc4ccccc4)C(=O)C3)ccc21` (centres unmarked) [Example 35, 4-(3-Methyl-2-oxo-1,3-benzoxazol-6-yl)-2-oxo-N-(4-phenylbutyl)piperidine-1-carboxamide], the concentration for half-maximal inhibition (IC50) in data set [1] was over 1000 nM. Besides, in data set [2], the solubility is under 1 µM.

In data set [1], `O=C(NCCCCc1ccccc1)N1CCC(c2ccc3[nH]c(=O)oc3c2)CC1` [Example 1, 4-(2-Oxo-3H-1,3-benzoxazol-6-yl)-N-(4-phenylbutyl)piperidine-1-carboxamide] came in with an IC50 of 200 to 1000 nM. For the same compound, the solubility in data set [2] stood at 2.4 µM (≈ 0.944 µg/mL).

For `Cn1c(=O)oc2cc(N3CCN(C(=O)NCCOCc4ccccc4)C(C)(C)C3)ccc21` [Example 57, N-(2-Benzyloxyethyl)-2,2-dimethyl-4-(3-methyl-2-oxo-1,3-benzoxazol-6-yl)piperazine-1-carboxamide], the half-maximal inhibitory concentration (IC50) in data set [1] lay within 200 to 1000 nM. Further, the solubility in data set [2] stood at 3.5 µM (≈ 1.53 µg/mL).

Compound `CN1CCN(C(=O)NCCCCc2ccccc2)CC1c1ccc2c(c1)oc(=O)n2C` (centres unmarked) [Example 41, 4-Methyl-3-(3-methyl-2-oxo-1,3-benzoxazol-6-yl)-N-(4-phenylbutyl)piperazine-1-carboxamide] yielded a half-inhibitory concentration (IC50) in data set [1] of over 1000 nM. For the same compound, in data set [2], the solubility is 135 µM (≈ 57 µg/mL).

In data set [1], `C[C@H]1CC(c2ccc3c(c2)oc(=O)n3C)CCN1C(=O)NCCc1ccccc1` (stereo partly drawn) [Example 21, (2S)-Methyl-4-(3-methyl-2-oxo-1,3-benzoxazol-6-yl)-N-(2-phenylethyl)piperidine-carboxamide] gave an IC50 of 200 to 1000 nM. Further, in data set [2], the solubility amounted to 56 µM (≈ 22 µg/mL).

`Cn1c(=O)oc2cc(C3CCCN(C(=O)NCCCCc4ccccc4)C3)ccc21` (centres unmarked) [Example 12, 3-(3-Methyl-2-oxo-1,3-benzoxazol-6-yl)-N-(4-phenylbutyl)piperidine-1-carboxamide] returned a half-inhibitory concentration (IC50) in data set [1] of over 1000 nM. Further, the solubility in data set [2] is 8 µM (≈ 3.26 µg/mL).

`CN(C)CCn1c(=O)oc2cc(N3CCN(C(=O)NCCCCc4ccccc4)C(C)(C)C3)ccc21` [Example 58, 4-[3-[2-(Dimethylamino)ethyl]-2-oxo-1,3-benzoxazol-6-yl]-2,2-dimethyl-N-(4-phenylbutyl)piperazine-1-carboxamide] registered an IC50 in data set [1] of under 200 nM. Also, the solubility in data set [2] is 41.8 µM (≈ 20.6 µg/mL).

`CCCCCNC(=O)N1CCN(c2ccc3c(c2)oc(=O)n3C)CC1(C)C` [Example 54, 2,2-Dimethyl-4-(3-methyl-2-oxo-1,3-benzoxazol-6-yl)-N-pentyl-piperazine-1-carboxamide] yielded a concentration for half-maximal inhibition (IC50) in data set [1] of 200 to 1000 nM. In data set [2], the solubility worked out at 2.4 µM (≈ 0.899 µg/mL).

As to `Cn1c(=O)oc2cc(C3CCCCN3C(=O)NCCCCc3ccccc3)ccc21` (centres unmarked) [Example 37, 2-(3-Methyl-2-oxo-1,3-benzoxazol-6-yl)-N-(4-phenylbutyl)piperidine-1-carboxamide], the half-maximal inhibitory concentration (IC50) in data set [1] was over 1000 nM. Further, the solubility in data set [2] turned out to be 30 µM (≈ 12.2 µg/mL).

Consider `Cn1c(=O)oc2cc(C3CCN(C(=O)NCCCCC4CC4)C(C)(C)C3)ccc21` (centres unmarked) [Example 31, N-(4-Cyclopropylbutyl)-2,2-dimethyl-4-(3-methyl-2-oxo-1,3-benzoxazol-6-yl)piperidine-1-carboxamide], for which the half-maximal inhibitory concentration (IC50) in data set [1] is under 200 nM. In addition, the solubility in data set [2] is 0.3 µM (≈ 0.12 µg/mL).

In data set [1], `Cn1c(=O)oc2cc(N3CCN(C(=O)NCCc4ccccc4)C(C)(C)C3)ccc21` [Example 51, 2,2-Dimethyl-4-(3-Methyl-2-oxo-1,3-benzoxazol-6-yl)-N-(2-phenylethyl)piperazine-1-carboxamide] yielded an IC50 of 200 to 1000 nM. The solubility in data set [2] came to 0.9 µM (≈ 0.368 µg/mL).

The compound `Cn1c(=O)oc2cc(N3CCN(C(=O)NCCCCc4ccccc4)C(C)(C)C3)ccc21` [Example 50, 2,2-Dimethyl-4-(3-methyl-2-oxo-1,3-benzoxazol-6-yl)-N-(4-phenylbutyl)piperazine-1-carboxamide] came in with an IC50 in data set [1] of under 200 nM. Besides, the solubility in data set [2] was 0.3 µM (≈ 0.131 µg/mL).
